The CheMixHub ionic liquid set

Assay: xn = mol fraction of the nth substance listed

COP(=O)([O-])OC.C[N+]1(CCO)CCCC1 + CCO
100 kPa
Conditions	viscosity [mPa·s]
293.15 K, x1 = 0.1077	4.74
293.15 K, x1 = 0.2079	12.31
293.15 K, x1 = 0.3084	32
293.15 K, x1 = 0.4033	55.9
293.15 K, x1 = 0.5077	123
293.15 K, x1 = 0.7053	402
298.15 K, x1 = 0.7053	295
298.15 K, x1 = 0.8055	478
303.15 K, x1 = 0.0561	2.02
303.15 K, x1 = 0.2079	9.66
303.15 K, x1 = 0.3084	23.7
303.15 K, x1 = 0.5077	78.2
308.15 K, x1 = 0.0561	1.73
308.15 K, x1 = 0.1077	3.54
308.15 K, x1 = 0.1523	5.76
308.15 K, x1 = 0.3084	21.1
313.15 K, x1 = 0.9053	277
318.15 K, x1 = 0.2079	7.02
318.15 K, x1 = 0.2537	10.45
318.15 K, x1 = 0.4033	26.5
318.15 K, x1 = 0.5077	44.7
318.15 K, x1 = 1	273
323.15 K, x1 = 0.5077	38.1
323.15 K, x1 = 0.6042	60
328.15 K, x1 = 0.2079	5.83
328.15 K, x1 = 0.3084	12.98
328.15 K, x1 = 0.6042	50.4
333.15 K, x1 = 0.4033	17.9
333.15 K, x1 = 0.7053	54.1
338.15 K, x1 = 0.4033	16.24
338.15 K, x1 = 0.5077	23.8
338.15 K, x1 = 0.6042	35.9
338.15 K, x1 = 0.8055	60.9

CS(=O)(=O)[O-].C[N+](C)(CCO)CCO + CCO
viscosity [mPa·s], 101 kPa
Conditions	x1 = 0.099	x1 = 0.2	x1 = 0.2984	x1 = 0.4	x1 = 0.5005	x1 = 0.6011	x1 = 0.7008	x1 = 0.7993	x1 = 0.8954	x1 = 1
298.15 K	3.21	8.15	18.5	39.7	80.7	176	319	556	950	1495
303.15 K	2.89	7.02	15.54	32.2	63.3	133.2	236	399	664	1021
308.15 K	2.61	6.13	13.16	26.5	50.5	92.7	178	293	476	716
313.15 K	2.32	5.38	11.4	22.1	41	73.2	136.8	221	350	513
318.15 K	2.13	4.76	9.92	18.6	33.7	58.6	106.9	169	262	378
323.15 K	1.9	4.24	8.58	15.85	28	47.6	76.5	132.1	201	282

OCCO + CCOS(=O)(=O)[O-].CC[n+]1ccn(C)c1
100 kPa, x1 = 1
Conditions	viscosity [mPa·s]
298.15 K	16.8
303.15 K	13.8

[N-]=C=S.[NH4+] + CCOS(=O)(=O)[O-].CC[n+]1ccn(C)c1
101 kPa
Conditions	electrical conductivity [S/m]	viscosity [mPa·s]
298.15 K, x1 = 0.0235	0.373	103.1
298.15 K, x1 = 0.3025	0.285	–
303.15 K, x1 = 0.565	0.375	172.5
308.15 K, x1 = 0.3025	0.439	129.6
308.15 K, x1 = 0.4042	0.436	140.9
313.15 K, x1 = 0.5997	0.59	–
318.15 K, x1 = 0.5205	0.656	86.9
318.15 K, x1 = 0.565	0.728	85.3
323.15 K, x1 = 0.565	0.868	69.75
333.15 K, x1 = 0.0235	–	26.54
333.15 K, x1 = 0.3025	–	50.29
333.15 K, x1 = 0.4042	–	53.18
333.15 K, x1 = 0.5997	–	47.67

O=C([O-])CC(O)(CC(=O)[O-])C(=O)[O-].[K+].[K+].[K+] + CCOS(=O)(=O)[O-].CC[n+]1ccn(C)c1 + O
viscosity [mPa·s], 101.3 kPa
Conditions	293.15 K	298.15 K	303.15 K	308.15 K	313.15 K
x1 = 0.0001822, x2 = 0.001795	1.082	0.969	0.854	0.76	0.688
x1 = 0.0001842, x2 = 0.002697	1.117	0.997	0.886	0.798	0.719
x1 = 0.0001964, x2 = 0	1.012	0.9	0.806	0.73	0.654
x1 = 0.0002632, x2 = 0.003588	1.149	1.029	0.912	0.824	0.74
x1 = 0.0005421, x2 = 0	1.019	0.907	0.813	0.737	0.661
x1 = 0.0005539, x2 = 0.001794	1.091	0.978	0.863	0.769	0.697
x1 = 0.0005561, x2 = 0.002696	1.127	1.007	0.896	0.808	0.729
x1 = 0.0005675, x2 = 0.003587	1.157	1.037	0.921	0.832	0.749
x1 = 0.0008894, x2 = 0	1.026	0.914	0.82	0.744	0.668
x1 = 0.0009179, x2 = 0.001794	1.099	0.986	0.871	0.776	0.704
x1 = 0.0009314, x2 = 0.002695	1.135	1.015	0.904	0.816	0.737
x1 = 0.0009355, x2 = 0.003586	1.166	1.046	0.929	0.841	0.757
x1 = 0.00126, x2 = 0	1.032	0.92	0.826	0.75	0.674
x1 = 0.001287, x2 = 0.001793	1.106	0.993	0.878	0.783	0.712
x1 = 0.001299, x2 = 0.002694	1.143	1.023	0.912	0.824	0.745
x1 = 0.001316, x2 = 0.003585	1.174	1.054	0.937	0.849	0.765
x1 = 0.001616, x2 = 0	1.038	0.926	0.832	0.756	0.68
x1 = 0.001647, x2 = 0.001792	1.113	1	0.884	0.79	0.719
x1 = 0.001665, x2 = 0.002693	1.15	1.03	0.92	0.831	0.753
x1 = 0.001686, x2 = 0.003583	1.181	1.061	0.944	0.856	0.773
x1 = 0.001985, x2 = 0	1.044	0.932	0.838	0.762	0.686
x1 = 0.002026, x2 = 0.002692	1.158	1.038	0.926	0.839	0.759
x1 = 0.002032, x2 = 0.001792	1.12	1.007	0.892	0.798	0.725
x1 = 0.002072, x2 = 0.003582	1.19	1.07	0.954	0.865	0.78

CCCCn1cc[n+](C)c1C.O=S(=O)([N-]S(=O)(=O)C(F)(F)F)C(F)(F)F + CC[N+](C)(CC)CCOC.O=S(=O)([N-]S(=O)(=O)C(F)(F)F)C(F)(F)F
100 kPa, x2 = 0
Conditions	electrical conductivity [S/m]
298.15 K	0.237
308.15 K	0.379
323.15 K	0.665
328.15 K	0.777

OCCO + CC[n+]1ccn(C)c1.F[B-](F)(F)F
viscosity [mPa·s]
Conditions	293.15 K	298.15 K	323.15 K	333.15 K	343.15 K
100 kPa, x1 = 1	21.4	17.4	7.12	–	4.1
101 kPa, x2 = 0	–	–	–	5.19	–

[N-]=C=S.[NH4+] + CC[n+]1ccn(C)c1.N#C[S-]
100 kPa
Conditions	electrical conductivity [S/m]	viscosity [mPa·s]
313.15 K, x1 = 0.039	3.12	16.11
318.15 K, x1 = 0.039	–	14.28
318.15 K, x1 = 0.1395	3.28	16.71
323.15 K, x1 = 0.1395	3.71	14.61
328.15 K, x1 = 0.039	–	11.19
333.15 K, x1 = 0.099	–	10.92
343.15 K, x1 = 0.1395	–	9.2
348.15 K, x1 = 0.099	–	8.08
353.15 K, x1 = 0.099	–	7.28
353.15 K, x1 = 0.1395	–	7.48

OCCO + CC[n+]1ccn(C)c1.O=C([O-])C(F)(F)F
100 kPa, x1 = 1
Conditions	viscosity [mPa·s]
293.15 K	20.8
298.15 K	16.8
303.15 K	13.8
313.15 K	9.52

O=S(=O)([N-]S(=O)(=O)C(F)(F)F)C(F)(F)F.[Li+] + CC[n+]1ccn(C)c1.O=S(=O)([N-]S(=O)(=O)C(F)(F)F)C(F)(F)F
101 kPa
Conditions	electrical conductivity, x2 = 0.6878 [S/m]	electrical conductivity, x2 = 0.746 [S/m]	electrical conductivity, x2 = 0.7874 [S/m]	electrical conductivity, x2 = 0.8765 [S/m]	electrical conductivity, x2 = 0.9376 [S/m]	viscosity, x2 = 0.8 [mPa·s]
288.15 K	0.094	0.146	0.189	0.351	0.461	–
298.15 K	0.175	0.253	0.315	0.539	0.686	89.9
333.15 K	0.739	0.91	1.06	1.53	1.79	–
358.15 K	–	–	–	–	–	13.33
